Data published in PMC9848300, “Discovery of novel enasidenib analogues targeting inhibition of mutant isocitrate dehydrogenase 2 as antileukaemic agents” (Journal of Enzyme Inhibition and Medicinal Chemistry, 2023).
Read-outs that look alike come from different tables or passages of the source.

Columns and labels:
[1] = test system: SK-MEL-28; test: NCI 60 antitumor screening (single dose / five doses); type: cell-based; conditions: Homo sapiens
[2] = test system: SNB-75; test: as above; type: cell-based; conditions: Homo sapiens
[3] = test system: MALME-3M; test: as above; type: cell-based; conditions: Homo sapiens; for inhibition at 10 µM: read-out: Growth inhibition percentage (GI %)
[4] = test system: HT29; test: as above; type: cell-based, human; conditions: Homo sapiens
[5] = test system: UACC-257; test: as above; type: cell-based; conditions: Homo sapiens
[6] = test system: SN 12C; test: as above; type: cell-based; conditions: Homo sapiens, SN12C; for inhibition at 10 µM: read-out: Growth inhibition percentage (GI %)
[7] = test system: MDA-MB-231/ATCC; test: as above; type: cell-based; conditions: Homo sapiens
[8] = test system: HOP-92; test: as above; type: cell-based; conditions: Homo sapiens
[9] = test system: MDA-MB-435; test: as above; type: cell-based; conditions: Homo sapiens
[10] = test system: SK-MEL-5; test: as above; type: cell-based; conditions: Homo sapiens
[11] = test system: HS 578T; test: NCI 60 antitumor screening (single dose); type: cell-based; conditions: Homo sapiens; HS 578T (breast cancer), single dose 10 μM; read-out: Growth inhibition percentage (GI %)
How it was run: (§1)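 Percent growth inhibition, calculated as 100 minus percent growth (G%) of treated cells, following a single 10 μM exposure in the NCI 60 human cancer cell screen; triplicate runs.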

[12] = test system: SK-OV-3; test: NCI 60 antitumor screening (single dose); type: cell-based; conditions: Homo sapiens; SK-OV-3 (ovarian cancer), single dose 10 μM; read-out: Growth inhibition percentage (GI %)
How it was run: (§2)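 GI% derived as 100 − G% from triplicate growth measurements in the NCI 60 human tumour panel, compound 10 μM, single dose, per NCI protocol.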

[13] = test system: NCI-H460; test: NCI 60 antitumor screening (single dose); type: cell-based; conditions: Homo sapiens; NCI-H460 (non-small cell lung cancer), single dose 10 μM; read-out: Growth inhibition percentage (GI %)
How it was run: as §2

[14] = test system: PC-3; test: NCI 60 antitumor screening (single dose); type: cell-based; conditions: Homo sapiens; PC-3 (prostate cancer), single dose 10 μM; read-out: Growth inhibition percentage (GI %)
How it was run: as §1

[15] = test system: DU-145; test: NCI 60 antitumor screening (single dose / five doses); type: cell-based; conditions: Homo sapiens
[16] = test system: IGROV1; test: as above; type: cell-based; conditions: Homo sapiens
[17] = test system: RXF 393; test: as above; type: cell-based; conditions: Homo sapiens
[18] = test system: COLO 205; test: as above; type: cell-based; conditions: Homo sapiens
[19] = test system: SR; test: as above; type: cell-based; conditions: Homo sapiens; for inhibition at 10 µM: read-out: Growth inhibition percentage (GI %)
[20] = test system: MDA-MB-468; test: as above; type: cell-based; conditions: Homo sapiens
[21] = test system: UACC-62; test: as above; type: cell-based; conditions: Homo sapiens
[22] = test system: ACHN; test: as above; type: cell-based; conditions: Homo sapiens; for inhibition at 10 µM: read-out: Growth inhibition percentage (GI %)
[23] = test system: SF-539; test: as above; type: cell-based; conditions: Homo sapiens
[24] = test system: NCI/ADR-RES; test: as above; type: cell-based; conditions: Homo sapiens; for inhibition at 10 µM: read-out: Growth inhibition percentage (GI %)
[25] = test system: EKVX; test: as above; type: cell-based; conditions: Homo sapiens; for inhibition at 10 µM: read-out: Growth inhibition percentage (GI %)
[26] = test system: A498; test: as above; type: cell-based; conditions: Homo sapiens
[27] = test system: CCRF-CEM; test: as above; type: cell-based; conditions: Homo sapiens; for inhibition at 10 µM: read-out: Growth inhibition percentage (GI %)
[28] = test system: SW-620; test: as above; type: cell-based, human; conditions: Homo sapiens

Work on O=[N+]([O-])c1cccc(/C=N/Nc2nc(N/N=C/c3cccc([N+](=O)[O-])c3)nc(N3CCCCC3)n2)c1 [compound 7f, 2,4-Bis[(E)-2-[(3-Nitrophenyl)methylidene]hydrazin-1-yl]-6-(piperidin-1-yl)-1,3,5-triazine] yielded an inhibition at 10 µM ([1]; SK-MEL-28, read-out: Growth inhibition percentage (GI %)) of 31.4%, an inhibition at 10 µM ([2]; SNB-75, read-out: Growth inhibition percentage (GI %)) of -0.71% and an inhibition at 10 µM ([3]; Malme-3M) of 7.94%. The inhibition at 10 µM ([4]; HT-29, read-out: Growth inhibition percentage (GI %)) was 36.3%, the inhibition at 10 µM ([5]; UACC-257, read-out: Growth inhibition percentage (GI %)) was 4.25% and the inhibition at 10 µM [6] was 31.9%. The inhibition at 10 µM ([7]; MDA-MB-231, read-out: Growth inhibition percentage (GI %)) was 0.87%, the inhibition at 10 µM ([8]; HOP-92, read-out: Growth inhibition percentage (GI %)) was 20.9% and the inhibition at 10 µM ([9]; MDA-MB-435, read-out: Growth inhibition percentage (GI %)) was 26.1%. The inhibition at 10 µM ([10]; SK-MEL-5, read-out: Growth inhibition percentage (GI %)) was 52.4%, the inhibition at 10 µM [11] was 20.8% and the inhibition at 10 µM [12] was -14.3%. For the same compound, the inhibition at 10 µM [13] was 31.3%, the inhibition at 10 µM [14] was 51.4% and the inhibition at 10 µM ([15]; DU-145, read-out: Growth inhibition percentage (GI %)) was 29.8%. For the same compound, the inhibition at 10 µM ([16]; IGROV-1, read-out: Growth inhibition percentage (GI %)) was 51.3%, the inhibition at 10 µM ([17]; RXF 393, read-out: Growth inhibition percentage (GI %)) was -3.98% and the inhibition at 10 µM ([18]; COLO 205, read-out: Growth inhibition percentage (GI %)) was 24.1%. For the same compound, the inhibition at 10 µM ([19]; SR) was 53.3%, the inhibition at 10 µM ([20]; MDA-MB-468, read-out: Growth inhibition percentage (GI %)) was 26.4% and the inhibition at 10 µM ([21]; UACC-62, read-out: Growth inhibition percentage (GI %)) was 43.7%. For the same compound, the inhibition at 10 µM ([22]; ACHN) was 37.8%, the inhibition at 10 µM ([23]; SF-539, read-out: Growth inhibition percentage (GI %)) was 7.37% and the inhibition at 10 µM ([24]; NCI/ADR-RES) was 32.8%. The inhibition at 10 µM ([25]; EKVX) was 34.9%, the inhibition at 10 µM ([26]; A498, read-out: Growth inhibition percentage (GI %)) was 18.7% and the inhibition at 10 µM ([27]; CCRF-CEM) was 65.1%. The inhibition at 10 µM ([28]; SW-620, read-out: Growth inhibition percentage (GI %)) was 16.5%.
CN(C)c1ccc(/C=N/Nc2nc(N/N=C/c3ccc(N(C)C)cc3)nc(N3CCCCC3)n2)cc1 [compound 7g, 4-[(1e)-(2-{4-[(E)-2-{[4-(dimethylamino)phenyl]methylidene}chydrazin-1-yl]-6-(piperidin-1-yl)-1,3,5-triazin-2-yl}hydrazin-1-ylidene)methyl]-N,N-dimethylaniline] showed an inhibition at 10 µM ([1]; SK-MEL-28 (melanoma), single dose 10 μM, read-out: Growth inhibition percentage (GI %)) of 58.3%, a GI50 ([1]; SK-MEL-28, five doses (0.01–100 μM), read-out: GI50) of 2 µM and an inhibition at 10 µM ([2]; SNB-75 (CNS cancer), single dose 10 μM, read-out: Growth inhibition percentage (GI %)) of -1.39%. For the same compound, the GI50 ([2]; SNB-75, five doses (0.01–100 μM), read-out: GI50) was 2.8 µM, the inhibition at 10 µM ([3]; MALME-3M (melanoma), single dose 10 μM) was 167% and the GI50 ([3]; MALME-3M, five doses (0.01–100 μM), read-out: GI50) was 1.86 µM. For the same compound, the GI50 ([4]; HT-29, HT29, five doses (0.01–100 μM), read-out: GI50) was 1.76 µM, the inhibition at 10 µM ([4]; HT-29, HT29 (colon cancer), single dose 10 μM, read-out: Growth inhibition percentage (GI %)) was 105% and the inhibition at 10 µM ([5]; UACC-257 (melanoma), single dose 10 μM, read-out: Growth inhibition percentage (GI %)) was -4.45%. The GI50 ([5]; UACC-257, five doses (0.01–100 μM), read-out: GI50) was 1.83 µM, the inhibition at 10 µM ([6]; SN 12C (renal cancer), single dose 10 μM) was 49.6% and the GI50 ([6]; SN 12C, five doses (0.01–100 μM), read-out: GI50) was 1.87 µM. It also gave a GI50 ([7]; MDA-MB-231/ ATCC, five doses (0.01–100 μM), read-out: GI50) of 1.8 µM, an inhibition at 10 µM ([7]; MDA-MB-231/ATCC (breast cancer), single dose 10 μM, read-out: Growth inhibition percentage (GI %)) of 31.4% and an inhibition at 10 µM ([8]; HOP-92 (non-small cell lung cancer), single dose 10 μM, read-out: Growth inhibition percentage (GI %)) of 16%. It also gave a GI50 ([8]; HOP-92, five doses (0.01–100 μM), read-out: GI50) of 1.47 µM, an inhibition at 10 µM ([9]; MDA-MB-435 (melanoma), single dose 10 μM, read-out: Growth inhibition percentage (GI %)) of 39.6% and a GI50 ([9]; MDA-MB-435, five doses (0.01–100 μM), read-out: GI50) of 1.94 µM. The inhibition at 10 µM ([10]; SK-MEL-5 (melanoma), single dose 10 μM, read-out: Growth inhibition percentage (GI %)) was 13.3%, the GI50 ([10]; SK-MEL-5, five doses (0.01–100 μM), read-out: GI50) was 1.73 µM and the inhibition at 10 µM [11] was -6.05%. It also gave an inhibition at 10 µM [12] of -31.8%, an inhibition at 10 µM [13] of 29.1% and an inhibition at 10 µM [14] of 15.2%. It also gave an inhibition at 10 µM ([15]; DU-145 (prostate cancer), single dose 10 μM, read-out: Growth inhibition percentage (GI %)) of 22.5%, a GI50 ([15]; DU-145, five doses (0.01–100 μM), read-out: GI50) of 3.92 µM and an inhibition at 10 µM ([16]; IGROV-1, IGROV1 (ovarian cancer), single dose 10 μM, read-out: Growth inhibition percentage (GI %)) of 6.23%. The GI50 ([16]; IGROV-1, IGROV1, five doses (0.01–100 μM), read-out: GI50) was 2.96 µM, the inhibition at 10 µM ([17]; RXF 393 (renal cancer), single dose 10 μM, read-out: Growth inhibition percentage (GI %)) was 6.71% and the GI50 ([17]; RXF 393, five doses (0.01–100 μM), read-out: GI50) was 2.12 µM. It also gave an inhibition at 10 µM ([18]; COLO 205 (colon cancer), single dose 10 μM, read-out: Growth inhibition percentage (GI %)) of 16.5%, a GI50 ([18]; COLO 205, five doses (0.01–100 μM), read-out: GI50) of 1.89 µM and an inhibition at 10 µM ([19]; SR (leukaemia), single dose 10 μM) of 114%. For the same compound, the GI50 ([19]; SR, five doses (0.01–100 μM), read-out: GI50) was 0.36 µM, the inhibition at 10 µM ([20]; MDA-MB-468 (breast cancer), single dose 10 μM, read-out: Growth inhibition percentage (GI %)) was 63.7% and the GI50 ([20]; MDA-MB-468, five doses (0.01–100 μM), read-out: GI50) was 1.64 µM. It also gave an inhibition at 10 µM ([21]; UACC-62 (melanoma), single dose 10 μM, read-out: Growth inhibition percentage (GI %)) of -0.61%, a GI50 ([21]; UACC-62, five doses (0.01–100 μM), read-out: GI50) of 1.84 µM and an inhibition at 10 µM ([22]; ACHN (renal cancer), single dose 10 μM) of 67.6%. It also gave a GI50 ([22]; ACHN, five doses (0.01–100 μM), read-out: GI50) of 2.68 µM, an inhibition at 10 µM ([23]; SF-539 (CNS cancer), single dose 10 μM, read-out: Growth inhibition percentage (GI %)) of 112% and a GI50 ([23]; SF-539, five doses (0.01–100 μM), read-out: GI50) of 1.99 µM. It also gave an inhibition at 10 µM ([24]; NCI/ADR-RES (ovarian cancer), single dose 10 μM) of 41.7%, a GI50 ([24]; NCI/ADR-RES, five doses (0.01–100 μM), read-out: GI50) of 3.19 µM and an inhibition at 10 µM ([25]; EKVX (non-small cell lung cancer), single dose 10 μM) of 2.99%. For the same compound, the GI50 ([25]; EKVX, five doses (0.01–100 μM), read-out: GI50) was 3.13 µM, the inhibition at 10 µM ([26]; A498 (renal cancer), single dose 10 μM, read-out: Growth inhibition percentage (GI %)) was -15.1% and the GI50 ([26]; A498, five doses (0.01–100 μM), read-out: GI50) was 1.58 µM. It also gave an inhibition at 10 µM ([27]; CCRF-CEM (leukaemia), single dose 10 μM) of 74.2%, a GI50 ([27]; CCRF-CEM, five doses (0.01–100 μM), read-out: GI50) of 1.21 µM and a GI50 ([28]; SW-620, SW-620, five doses (0.01–100 μM), read-out: GI50) of 1.89 µM. It also gave an inhibition at 10 µM ([28]; SW-620 (colon cancer), single dose 10 μM, read-out: Growth inhibition percentage (GI %)) of 35.8%.
